Laboratory results published in publication PMC5829263, “Homoarginine and inhibition of human arginase activity: kinetic characterization and biological relevance” (Scientific Reports, 2018).
Values joined by “and” are separate entries in the source; they are usually repeats but may differ in a detail not shown here. Equal entries are not always repeated. “Also recorded” adds a separate entry of the source.

Assays:
[1] = biological target: arginase 1; conditions: arginase 1 inhibition; ref Ikemoto et al. 12; cited from earlier work
[2] = biological target: T1, recombinant human arginase 2 (Homo sapiens, UniProt P78540); test: Arginase 2 inhibition, UPLC-MS measurement of ARG to ORN conversion in HEK293T cell lysate; conditions: for % of control activity at the corresponding [Inhibitor] ± SE: mean of two experiments;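 on all read-outs here: HEK293T lysate carrying arginase 2 at 0.1 mg/mL in 0.05 M phosphate buffer pH 7.4, inhibitor preincubated with enzyme 5 min before ARG addition started the reaction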
T1 sequence (P78540 23-354): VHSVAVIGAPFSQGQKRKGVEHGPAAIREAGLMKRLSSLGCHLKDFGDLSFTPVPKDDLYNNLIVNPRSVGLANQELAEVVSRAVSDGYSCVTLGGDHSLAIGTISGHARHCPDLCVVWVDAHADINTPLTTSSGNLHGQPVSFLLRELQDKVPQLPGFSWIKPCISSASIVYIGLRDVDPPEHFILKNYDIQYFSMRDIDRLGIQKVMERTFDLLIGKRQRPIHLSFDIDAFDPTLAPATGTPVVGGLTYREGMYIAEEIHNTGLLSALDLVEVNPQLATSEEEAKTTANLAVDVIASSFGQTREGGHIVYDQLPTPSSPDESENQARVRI
Experimental: (§1) Following a 5-min pre-equilibration period reactions were initiated by the addition of the cell lysate solution in 0.05 M phosphate buffer to a pre-equilibrated aqueous solution of the substrate (ARG).
(§2) The samples were vortex mixed (20 sec) and cooled in an ice/water bath for 10 min prior to centrifugation (5 min, 18,000 × g, room temperature) to precipitate the proteins. An aliquot of the supernatant layer was diluted with a 7:3 mobile phase A/mobile phase B solution into glass UPLC vial inserts.
(§3) Incubation mixtures comprised of HEK293T cell lysate expressing arginase 1 (0.05 mg/mL) or arginase 2 (0.1 mg/mL), phosphate buffer (0.05 M, pH 7.4), inhibitor (0, 0.1, 1, 10, 100, 1000 or 10000 μM) and ARG (0.1, 2 or 3 mM). Following a 5-min pre-incubation of the potential inhibitor with arginase 1 or arginase 2, reactions were initiated by the addition of a pre-equilibrated solution of the substrate ARG.
Sample were diluted 3:17 in mobile phase solution prior injection.

[3] = biological target: T2, recombinant human arginase 1 (Homo sapiens, UniProt P05089); test: Arginase 1 inhibition, UPLC-MS measurement of ARG to ORN conversion in HEK293T cell lysate; conditions: for % of control activity at the corresponding [Inhibitor] ± SE: mean of two experiments;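 on all read-outs here: arginase 1–expressing HEK293T lysate at 0.05 mg/mL in pH 7.4 phosphate buffer, inhibitor preincubated 5 min with enzyme, then reaction started by adding ARG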
T2 sequence (P05089 1-322): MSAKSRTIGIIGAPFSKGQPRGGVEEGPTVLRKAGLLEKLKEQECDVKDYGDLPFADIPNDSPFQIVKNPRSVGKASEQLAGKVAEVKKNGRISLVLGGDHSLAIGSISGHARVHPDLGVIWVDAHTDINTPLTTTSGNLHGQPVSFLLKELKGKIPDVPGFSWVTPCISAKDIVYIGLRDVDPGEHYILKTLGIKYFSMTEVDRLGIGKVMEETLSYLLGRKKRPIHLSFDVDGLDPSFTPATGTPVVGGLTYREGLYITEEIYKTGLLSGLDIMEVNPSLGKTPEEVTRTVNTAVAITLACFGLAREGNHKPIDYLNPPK
Experimental: as §1, §2, §3
Ki values were derived from fitting the competitive inhibition equation to experimental data. Ki data are the mean of three singlicate experiments.

[4] = system: arginase 2; test: HOMOARG as a substrate for arginase 2, formation of LYS by UPLC-MS; format: biochemical, human; conditions: LYS limit of detection 0.3 µM
[5] = system: arginase 1; test: HOMOARG as a substrate for arginase 1, formation of LYS by UPLC-MS; format: biochemical, human; conditions: LYS limit of detection 0.3 µM
[6] = biological target: arginase 2; conditions: arginase 2 inhibition; ref Colleluori and Ash 17; cited from earlier work

N=C(N)NCCCC[C@H](N)C(=O)O [HOMOARG, homoarginine]
Ki [1]: 5 to 5.2 mM | inhibition of arginase 2 ([2]; ARG 100 µM, inhibitor 1 mM): 47% | inhibition of arginase 2 ([2]; ARG 100 µM, inhibitor 10 mM): 88% | % of control activity at the corresponding [Inhibitor] ± SE ([2]; arginase 2, ARG 100 µM, inhibitor 1 µM): 107 ± 2% | % of control activity at the corresponding [Inhibitor] ± SE ([2]; arginase 2, ARG 100 µM, inhibitor 10 µM): 105 ± 5% | % of control activity at the corresponding [Inhibitor] ± SE ([2]; arginase 2, ARG 100 µM, inhibitor 100 µM): 100 ± 5% | % of control activity at the corresponding [Inhibitor] ± SE ([2]; arginase 2, ARG 100 µM, inhibitor 1,000 µM): 53 ± 4% | % of control activity at the corresponding [Inhibitor] ± SE ([2]; arginase 2, ARG 100 µM, inhibitor 10,000 µM): 12 ± 5% | % of control activity at the corresponding [Inhibitor] ± SE ([2]; arginase 2, ARG 2 mM, inhibitor 1 µM): 95 ± 3% | % of control activity at the corresponding [Inhibitor] ± SE ([2]; arginase 2, ARG 2 mM, inhibitor 10 µM): 106 ± 2% | % of control activity at the corresponding [Inhibitor] ± SE ([2]; arginase 2, ARG 2 mM, inhibitor 100 µM): 94 ± 2% | % of control activity at the corresponding [Inhibitor] ± SE ([2]; arginase 2, ARG 2 mM, inhibitor 1,000 µM): 72 ± 1% | % of control activity at the corresponding [Inhibitor] ± SE ([2]; arginase 2, ARG 2 mM, inhibitor 10,000 µM): 15 ± 8% | activity retained vs. control ([2]; arginase 2, physiological HOMOARG concentrations (1–10 µM)): 90% | inhibition model fitting the data ([2]; arginase 2, poorly fit by uncompetitive, noncompetitive and mixed models): competitive | inhibition of arginase 2 at physiological inhibitor concentrations ([2]; physiological LYS and HOMOARG concentrations): no significant inhibition | IC50 ([2]; read-out: IC50 ( ± SE), arginase 2, ARG 2 mM): 2.5 mM and 2.52 mM | Ki ([2]; read-out: Ki ( ± SE), arginase 2, competitive inhibition model, ARG 0.5–8 mM): 1.7 mM and 1.73 mM | inhibition of arginase 1 activity ([3]; ARG 100 µM (physiological), inhibitor 1 mM): 30% | inhibition of arginase 1 activity ([3]; ARG 100 µM (physiological), inhibitor 10 mM): 76% | inhibition of arginase 1 activity ([3]; ARG 3 mM (Km), inhibitor 1 mM): 14% | inhibition of arginase 1 activity ([3]; ARG 3 mM (Km), inhibitor 10 mM): 50% | inhibitory effect on arginase 1 activity at physiological inhibitor concentrations ([3]; LYS 100–1000 µM, HOMOARG 1–10 µM): no significant inhibitory effects | % of control activity at the corresponding [Inhibitor] ± SE ([3]; arginase 1, ARG 100 µM, inhibitor 1 µM): 112 ± 4% | % of control activity at the corresponding [Inhibitor] ± SE ([3]; arginase 1, ARG 100 µM, inhibitor 10 µM): 107 ± 4% | % of control activity at the corresponding [Inhibitor] ± SE ([3]; arginase 1, ARG 100 µM, inhibitor 100 µM): 85 ± 1% | % of control activity at the corresponding [Inhibitor] ± SE ([3]; arginase 1, ARG 100 µM, inhibitor 1,000 µM): 70 ± 1% | % of control activity at the corresponding [Inhibitor] ± SE ([3]; arginase 1, ARG 100 µM, inhibitor 10,000 µM): 24 ± 8% | % of control activity at the corresponding [Inhibitor] ± SE ([3]; arginase 1, ARG 3 mM, inhibitor 1 µM): 106 ± 7% | % of control activity at the corresponding [Inhibitor] ± SE ([3]; arginase 1, ARG 3 mM, inhibitor 10 µM): 110 ± 1% | % of control activity at the corresponding [Inhibitor] ± SE ([3]; arginase 1, ARG 3 mM, inhibitor 100 µM): 96 ± 6% | % of control activity at the corresponding [Inhibitor] ± SE ([3]; arginase 1, ARG 3 mM, inhibitor 1,000 µM): 86 ± 13% | % of control activity at the corresponding [Inhibitor] ± SE ([3]; arginase 1, ARG 3 mM, inhibitor 10,000 µM): 50 ± 1% | activity retained vs. control ([3]; arginase 1, physiological HOMOARG concentrations (1–10 µM)): 90% | inhibition model fitting the data ([3]; arginase 1, poorly fit by uncompetitive, noncompetitive and mixed models): competitive | IC50 ([3]; read-out: IC50 ( ± SE), arginase 1, ARG 3 mM): 8.14 ± 0.52 mM | Ki ([3]; read-out: Ki ( ± SE), arginase 1, competitive inhibition model, ARG 0.6–15 mM): 6.1 ± 0.5 mM | substrate activity, formation of LYS from HOMOARG [4]: could not detect; also recorded: not a substrate | substrate activity, formation of LYS from HOMOARG [5]: could not detect; also recorded: not a substrate | Ki [6]: 39 mM
